Measured values: the supplement of paper PMC10307832

How the values were obtained:
Experiment in all cases: relative viability (nuclei count vs DMSO), 5 days (fraction); higher = more cells survive
BI-D1870 + Palbociclib = compound: CC(C)CCN1c2nc(Nc3cc(F)c(O)c(F)c3)ncc2N(C)C(=O)C1C [BI-D1870] + CC(=O)c1c(C)c2cnc(Nc3ccc(N4CCNCC4)cn3)nc2n(C2CCCC2)c1=O [Palbociclib] (partner 0.5 µM)
Outline: (§1)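 Lung cancer cell lines were seeded in 1536-well plates and dosed by pin tool the next day, with either a single drug or a fixed anchor-drug dose combined with five library-drug doses (not always all listed) spaced in √10 steps. Five days later, one step fixed the cells and stained their nuclei (final 0.05% Triton X-100, 1% formaldehyde, 1 ug/ml Hoechst), and nuclei were counted on 4× images. Relative viability is the nuclei count in treated wells divided by the count in vehicle wells, and each value is the median of duplicate plates.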

Zebularine + Decitabine = compound: O=c1ncccn1[C@@H]1O[C@H](CO)[C@@H](O)[C@H]1O [Zebularine] + Nc1ncn([C@H]2C[C@H](O)[C@@H](CO)O2)c(=O)n1 [Decitabine] (partner 2 µM)
Outline: as §1

BI-D1870 + Pemetrexed = compound: CC(C)CCN1c2nc(Nc3cc(F)c(O)c(F)c3)ncc2N(C)C(=O)C1C [BI-D1870] + Nc1nc2[nH]cc(CCc3ccc(C(=O)N[C@@H](CCC(=O)O)C(=O)O)cc3)c2c(=O)[nH]1 [Pemetrexed] (partner 0.2 µM)
Outline: as §1

Zebularine + Alpelisib = compound: O=c1ncccn1[C@@H]1O[C@H](CO)[C@@H](O)[C@H]1O [Zebularine] + Cc1nc(NC(=O)N2CCC[C@H]2C(N)=O)sc1-c1ccnc(C(C)(C)C(F)(F)F)c1 [Alpelisib] (partner 2 µM)
Outline: as §1

Cell Line | relative viability (BI-D1870 + Palbociclib; first compound 0.04 µM) | relative viability (BI-D1870 + Palbociclib; first compound 0.1265 µM) | relative viability (BI-D1870 + Palbociclib; first compound 0.4 µM) | relative viability (BI-D1870 + Palbociclib; first compound 1.265 µM) | relative viability (BI-D1870 + Palbociclib; first compound 4 µM) | relative viability (Zebularine + Decitabine; first compound 1 µM) | relative viability (Zebularine + Decitabine; first compound 3.162 µM) | relative viability (Zebularine + Decitabine; first compound 10 µM) | relative viability (Zebularine + Decitabine; first compound 31.62 µM) | relative viability (Zebularine + Decitabine; first compound 100 µM) | relative viability (BI-D1870 + Pemetrexed; first compound 0.04 µM) | relative viability (BI-D1870 + Pemetrexed; first compound 0.1265 µM) | relative viability (BI-D1870 + Pemetrexed; first compound 0.4 µM) | relative viability (BI-D1870 + Pemetrexed; first compound 1.265 µM) | relative viability (BI-D1870 + Pemetrexed; first compound 4 µM) | relative viability (Zebularine + Alpelisib; first compound 1 µM) | relative viability (Zebularine + Alpelisib; first compound 3.162 µM) | relative viability (Zebularine + Alpelisib; first compound 10 µM) | relative viability (Zebularine + Alpelisib; first compound 31.62 µM) | relative viability (Zebularine + Alpelisib; first compound 100 µM)
NCI-H1975 | 0.785 | 0.521 | 0.552 | 0.623 | 0.456 | 0.428 | 0.346 | 0.345 | 0.35 | 0.267 | 0.299 | 0.272 | 0.292 | 0.305 | 0.238 | 0.705 | 0.555 | 0.4 | 0.354 | 0.233
CAL-12T | 0.593 | 0.399 | 0.34 | 0.336 | 0.203 | – | – | – | – | – | 1.29 | 1.16 | 1.33 | 1.15 | 0.736 | 1.49 | 1.07 | – | 1.28 | 1.1
HCC-44 | 0.966 | 0.901 | 0.919 | 1.01 | 0.946 | 0.981 | 0.929 | 0.946 | 1.03 | 0.585 | 0.653 | 0.631 | 0.632 | 0.75 | 0.689 | 0.818 | 0.938 | 0.463 | 0.639 | 0.265
EKVX | 0.472 | 0.366 | 0.352 | 0.385 | 0.341 | 0.576 | 0.378 | – | 0.304 | 0.339 | 0.399 | 0.418 | 0.359 | 0.67 | 0.391 | 0.958 | 0.867 | – | 0.963 | 0.802
NCI-H1651 | 0.473 | 0.503 | 0.494 | 0.555 | 0.536 | 0.714 | 0.56 | 0.58 | 0.522 | 0.347 | 0.566 | 0.561 | 0.547 | 0.629 | 0.54 | 0.875 | 1.05 | – | 0.769 | 0.527
NCI-H1944 | 0.335 | 0.308 | 0.308 | 0.332 | 0.33 | 0.455 | 0.424 | 0.449 | 0.461 | 0.395 | 0.899 | 0.603 | 0.599 | 0.631 | 0.552 | 0.858 | 0.906 | 0.629 | 0.805 | 0.688
NCI-H1703 | – | – | – | – | – | – | – | – | – | – | – | – | – | – | – | 0.311 | 0.337 | 0.307 | 0.325 | 0.353
Calu-6 | – | – | – | – | – | – | – | – | – | – | – | – | – | – | – | 1 | 0.929 | 0.869 | 0.786 | 0.302
EBC-1 | – | – | – | – | – | – | – | – | – | – | – | – | – | – | – | 0.899 | 0.832 | 0.711 | 1.02 | 0.857
SW 1573 | 0.435 | 0.347 | 0.332 | 0.25 | 0.17 | 0.525 | 0.424 | 0.341 | 0.582 | 0.555 | 0.855 | 0.775 | 0.826 | 0.845 | 0.35 | 0.728 | 0.792 | 0.448 | 0.743 | 0.646
A-427 | 0.59 | 0.488 | 0.532 | 0.555 | 0.495 | 0.693 | 0.534 | 0.524 | 0.455 | 0.302 | 1.02 | 0.982 | 0.994 | 0.963 | 0.784 | 1.08 | 0.993 | 0.785 | 0.412 | 0.237
NCI-H2347 | 0.385 | 0.426 | 0.407 | 0.453 | 0.4 | 0.658 | 0.598 | 0.544 | 0.575 | 0.371 | 0.515 | 0.443 | 0.427 | 0.438 | 0.393 | 1.02 | 0.867 | 0.686 | 0.694 | 0.474
NCI-H1355 | 0.384 | 0.368 | 0.403 | 0.446 | 0.392 | 0.34 | 0.329 | 0.334 | 0.314 | 0.28 | 1.04 | 0.998 | 1.03 | 1.15 | 0.963 | 0.856 | 0.798 | 0.728 | 0.635 | 0.385
NCI-H358 | 0.121 | 0.124 | 0.117 | 0.128 | 0.126 | 0.219 | 0.172 | 0.178 | 0.214 | 0.144 | 0.184 | 0.168 | 0.153 | 0.164 | 0.164 | 0.888 | 0.786 | 0.578 | 0.495 | 0.266
PC-3 [JPC-3] | 0.578 | 0.511 | 0.53 | 0.567 | 0.478 | 0.781 | 0.817 | 0.755 | 0.842 | 0.659 | 1.1 | 1.1 | 1.01 | 0.806 | 0.479 | 1.09 | 0.948 | 0.748 | 0.824 | 0.469
NCI-H2228 | 0.97 | 0.771 | 0.688 | 0.713 | 0.627 | – | – | – | – | – | 0.33 | 0.345 | 0.349 | 0.353 | 0.195 | 0.782 | 0.615 | 0.632 | 0.693 | 0.374
HOP-62 | 0.508 | 0.419 | 0.496 | 0.522 | 0.405 | 0.205 | 0.205 | 0.209 | 0.164 | 0.178 | 0.331 | 0.333 | 0.379 | 0.409 | 0.365 | 0.932 | 0.64 | 0.603 | 0.22 | 0.127
HARA | 0.219 | 0.234 | 0.263 | 0.272 | 0.23 | 0.595 | 0.603 | 0.433 | 0.554 | 0.459 | 0.234 | 0.227 | 0.267 | 0.243 | 0.218 | 1.01 | 0.804 | – | 0.818 | 0.572
NCI-H838 | 0.243 | 0.236 | 0.232 | 0.262 | 0.209 | 0.504 | 0.49 | 0.489 | 0.42 | 0.289 | 0.267 | 0.249 | 0.31 | 0.248 | 0.262 | 1.04 | 1.05 | 0.707 | 0.857 | 0.404
